System: Balb/c splenic B cells
Test: B cell activation and proliferation assay (Alamar Blue)
Format: cell-based
Details: Mus musculus, read-out: B cell proliferation EC50
Description: The assay is performed in a 96 well microtiter plate using Alamar Blue reduction. Balb/c splenic B cells are purified over a Ficoll-Paque™ PLUS gradient followed by magnetic cell separation using a MACS B cell Isolation Kit (Miletenyi). Cells are plated in 90 ul at 50,000 cells/well in B Cell Media (RPMI+10% FBS+Penn/Strep+50 uM bME+5 mM HEPES). A compound disclosed herein is diluted in B Cell Media and added in a 10 ul volume. Plates are incubated for 30 min at 37 C and 5% CO2 (0.2% DMSO final concentration). A 50 ul B cell stimulation cocktail is then added containing either 10 ug/ml LPS or 5 ug/ml F(ab′)2 Donkey anti-mouse IgM plus 2 ng/ml recombinant mouse IL4 in B Cell Media. […] A volume of 15 uL of Alamar Blue reagent is added to each well and plates are incubated for 5 hours at 37 C and 5% CO2. Alamar Blue fluoresce is read at 560Ex/590Em, and IC50 or EC50 values are calculated using GraphPad Prism 5.

SMILES: Cc1cccc2cc(Cn3nc(-c4ccc(F)c(O)c4)c4c(N)ncnc43)n(C(C)C)c(=O)c12 [Compound 67]
- EC50: < 100 nM

SMILES: Cc1cccnc1-n1c(Cn2nc(-c3ccc(F)c(O)c3)c3c(N)ncnc32)cc2cccc(C)c2c1=O [Compound 68]
- EC50: < 100 nM

SMILES: Cc1cccnc1-n1c(Cn2nc(C#C[C@@H](C)O)c3c(N)ncnc32)cc2cccc(C)c2c1=O [Compound 69]
- EC50: < 1000 nM

SMILES: COc1ccccc1-n1c(Cn2nc(I)c3c(N)ncnc32)cc2cccc(C)c2c1=O [Compound 70]
- EC50: < 1000 nM

SMILES: Cc1cccc2cc(Cn3nc(-c4ccc(Cl)c(O)c4)c4c(N)ncnc43)n(C3CCCC3)c(=O)c12 [Compound 71]
- EC50: < 10000 nM

SMILES: Cc1cccnc1-n1c(Cn2nc(-c3ccc(Cl)c(O)c3)c3c(N)ncnc32)cc2cccc(C)c2c1=O [Compound 72]
- EC50: < 100 nM

SMILES: Cc1cccnc1-n1c(Cn2nc(-c3cccc(O)c3)c3c(N)ncnc32)cc2cccc(C)c2c1=O [Compound 73]
- EC50: < 100 nM

SMILES: COc1ccccc1-n1c(Cn2nc(-c3cccc(O)c3)c3c(N)ncnc32)cc2cccc(C)c2c1=O [Compound 74]
- EC50: < 100 nM

SMILES: Cc1cccc2cc(Cn3nc(I)c4c(N)ncnc43)n(-c3ccccc3C(C)C)c(=O)c12 [Compound 75]
- EC50: < 100 nM

SMILES: Cc1cccc2cc(Cn3nc(I)c4c(N)ncnc43)n(-c3ccccc3Cl)c(=O)c12 [Compound 76]
- EC50: < 1000 nM

SMILES: CCc1ccccc1-n1c(Cn2nc(I)c3c(N)ncnc32)cc2cccc(C)c2c1=O [Compound 77]
- EC50: < 1000 nM

SMILES: Cc1ccncc1-n1c(Cn2nc(I)c3c(N)ncnc32)cc2cccc(C)c2c1=O [Compound 78]
- EC50: < 1000 nM

SMILES: Cc1cccc2cc(Cn3nc(I)c4c(N)ncnc43)n(-c3ccccc3O)c(=O)c12 [Compound 79]
- EC50: < 1000 nM

SMILES: COc1ccccc1-n1c(Cn2nc(C#C[C@@H](C)O)c3c(N)ncnc32)cc2cccc(C)c2c1=O [Compound 80]
- EC50: < 1000 nM

SMILES: Cc1cccc2cc(Cn3nc(-c4cccc(O)c4)c4c(N)ncnc43)n(-c3ccccc3O)c(=O)c12 [Compound 81]
- EC50: < 100 nM

SMILES: Cc1cccc2cc(Cn3nc(-c4cccc(O)c4)c4c(N)ncnc43)n(-c3ccccc3C(C)C)c(=O)c12 [Compound 82]
- EC50: < 100 nM

SMILES: Cc1cccc2cc(Cn3nc(C#C[C@@H](C)O)c4c(N)ncnc43)n(-c3ccccc3C(C)C)c(=O)c12 [Compound 83]
- EC50: < 100 nM

SMILES: COc1ccccc1-n1c(Cn2nc(-c3cc(O)cc(F)c3)c3c(N)ncnc32)cc2cccc(C)c2c1=O [Compound 84]
- EC50: < 100 nM

SMILES: Cc1ccccc1-n1c(Cn2nc(C#C[C@H](C)O)c3c(N)ncnc32)cc2cccc(C)c2c1=O [Compound 85]
- EC50: < 1000 nM

SMILES: Cc1cccc2cc(Cn3nc(I)c4c(N)ncnc43)n(C3CC3)c(=O)c12 [Compound 86]
- EC50: < 1000 nM

SMILES: Cc1cccc2cc(Cn3nc(I)c4c(N)ncnc43)n(C3CCCCC3)c(=O)c12 [Compound 87]
- EC50: < 10000 nM

SMILES: CCc1ccccc1-n1c(Cn2nc(-c3cccc(O)c3)c3c(N)ncnc32)cc2cccc(C)c2c1=O [Compound 88]
- EC50: < 100 nM

SMILES: CCc1ccccc1-n1c(Cn2nc(-c3cc(O)cc(F)c3)c3c(N)ncnc32)cc2cccc(C)c2c1=O [Compound 89]
- EC50: < 100 nM

SMILES: Cc1cccc2cc(Cn3nc(-c4cc(O)cc(F)c4)c4c(N)ncnc43)n(-c3ccccc3O)c(=O)c12 [Compound 90]
- EC50: < 100 nM

SMILES: Cc1cccc2cc(Cn3nc(C#C[C@@H](C)O)c4c(N)ncnc43)n(-c3ccccc3O)c(=O)c12 [Compound 91]
- EC50: < 1000 nM

SMILES: Cc1cccc2cc(Cn3nc(-c4cc(O)cc(F)c4)c4c(N)ncnc43)n(-c3ccccc3C(C)C)c(=O)c12 [Compound 95]
- EC50: < 100 nM

SMILES: Cc1cccc2cc(Cn3nc(-c4cccc(O)c4)c4c(N)ncnc43)n(-c3ccccc3Cl)c(=O)c12 [Compound 96]
- EC50: < 100 nM

SMILES: Cc1cccc2cc(Cn3nc(-c4cc(O)cc(F)c4)c4c(N)ncnc43)n(-c3ccccc3Cl)c(=O)c12 [Compound 97]
- EC50: < 100 nM

SMILES: Cc1cccc2cc(Cn3nc(C#C[C@@H](C)O)c4c(N)ncnc43)n(-c3ccccc3Cl)c(=O)c12 [Compound 98]
- EC50: < 1000 nM

SMILES: CCc1ccccc1-n1c(Cn2nc(C#C[C@@H](C)O)c3c(N)ncnc32)cc2cccc(C)c2c1=O [Compound 99]
- EC50: < 100 nM

SMILES: Cc1cccc2cc(Cn3nc(C#C[C@@H](C)O)c4c(N)ncnc43)n(C3CC3)c(=O)c12 [Compound 100]
- EC50: < 1000 nM

SMILES: Cc1cccc2cc(Cn3nc(-c4cc(O)cc(F)c4)c4c(N)ncnc43)n(C3CC3)c(=O)c12 [Compound 101]
- EC50: < 100 nM

SMILES: Cc1cccc2cc(Cn3nc(-c4cccc(O)c4)c4c(N)ncnc43)n(C3CC3)c(=O)c12 [Compound 102]
- EC50: < 100 nM

SMILES: Cc1cccc2cc(Cn3nc(I)c4c(N)ncnc43)n(-c3ccccc3OCCN3CCOCC3)c(=O)c12 [Compound 103]
- EC50: < 1000 nM

SMILES: Cc1cccc2cc(Cn3nc(I)c4c(N)ncnc43)n(C3CCC3)c(=O)c12 [Compound 105]
- EC50: < 1000 nM

SMILES: COc1cccc(-c2nn(Cc3cc4cccc(C)c4c(=O)n3-c3ccccc3C)c3ncnc(N)c23)c1 [Compound 106]
- EC50: < 1000 nM

SMILES: Cc1cccc2cc(Cn3nc(I)c4c(N)ncnc43)n(C)c(=O)c12 [Compound 107]
- EC50: < 1000 nM

SMILES: Cc1cccc2cc(Cn3nc(-c4cc(O)cc(F)c4)c4c(N)ncnc43)n(-c3ccccc3OCCN3CCOCC3)c(=O)c12 [Compound 108]
- EC50: < 100 nM

SMILES: Cc1cccc2cc(Cn3nc(-c4cccc(O)c4)c4c(N)ncnc43)n(-c3ccccc3OCCN3CCOCC3)c(=O)c12 [Compound 109]
- EC50: < 100 nM

SMILES: Cc1cccc2cc(Cn3nc(-c4cc(O)cc(F)c4)c4c(N)ncnc43)n(C3CCCCC3)c(=O)c12 [Compound 110]
- EC50: < 1000 nM

SMILES: Cc1cccc2cc(Cn3nc(-c4cccc(O)c4)c4c(N)ncnc43)n(C3CCCCC3)c(=O)c12 [Compound 111]
- EC50: < 1000 nM

SMILES: Cc1cccc2cc(Cn3nc(C#C[C@@H](C)O)c4c(N)ncnc43)n(C3CCCCC3)c(=O)c12 [Compound 112]
- EC50: < 10000 nM

SMILES: Cc1ccccc1-n1c(Cn2nc(-c3cc(O)cc(F)c3)c3c(N)nccc32)cc2cccc(C)c2c1=O [Compound 113]
- EC50: < 100 nM

SMILES: Cc1cccc2cc(Cn3nc(-c4cccc(O)c4)c4c(N)ncnc43)n(C3CCC3)c(=O)c12 [Compound 114]
- EC50: < 1000 nM

SMILES: Cc1cccc2cc(Cn3nc(-c4cc(O)cc(F)c4)c4c(N)ncnc43)n(C3CCC3)c(=O)c12 [Compound 115]
- EC50: < 100 nM

SMILES: Cc1cccc2cc(Cn3nc(-c4ccc(Cl)c(O)c4)c4c(N)ncnc43)n(C(C)C)c(=O)c12 [Compound 123]
- EC50: < 100 nM

SMILES: Cc1cccc2cc(Cn3nc(-c4cccc(O)c4)c4c(N)ncnc43)n(C)c(=O)c12 [Compound 124]
- EC50: < 1000 nM

SMILES: Cc1cccc2cc(Cn3nc(-c4cc(O)cc(F)c4)c4c(N)ncnc43)n(C)c(=O)c12 [Compound 125]
- EC50: < 100 nM

SMILES: CCn1c(Cn2nc(-c3cccc(O)c3)c3c(N)ncnc32)cc2cccc(C)c2c1=O [Compound 126]
- EC50: < 100 nM

SMILES: Cc1cccc2cc(Cn3nc(-c4cc(O)cc(F)c4)c4c(N)ncnc43)n(C3CCOCC3)c(=O)c12 [Compound 128]
- EC50: < 100 nM

SMILES: CC(C)n1c(Cn2nc(-c3cccc(O)c3)c3c(N)ncnc32)cc2cccc(F)c2c1=O [Compound 133]
- EC50: < 1000 nM

SMILES: CC(C)n1c(Cn2nc(-c3cc(O)cc(F)c3)c3c(N)ncnc32)cc2cccc(F)c2c1=O [Compound 134]
- EC50: < 100 nM

SMILES: CC(C)n1c(Cn2nc(-c3cccc(O)c3)c3c(N)ncnc32)cc2ccccc2c1=O [Compound 135]
- EC50: < 1000 nM

SMILES: CC(C)n1c(Cn2nc(-c3cc(O)cc(F)c3)c3c(N)ncnc32)cc2ccccc2c1=O [Compound 136]
- EC50: < 100 nM

SMILES: CC(C)n1c(Cn2nc(-c3cccc(O)c3)c3c(N)ncnc32)cc2cccc(Cl)c2c1=O [Compound 137]
- EC50: < 100 nM

SMILES: CC(C)n1c(Cn2nc(-c3cc(O)cc(F)c3)c3c(N)ncnc32)cc2cccc(Cl)c2c1=O [Compound 138]
- EC50: < 100 nM

SMILES: Nc1ncnc2c1c(I)nn2Cc1cc2cccc(Cl)c2c(=O)n1C1CC1 [Compound 139]
- EC50: < 100 nM

SMILES: Nc1ncnc2c1c(-c1cccc(O)c1)nn2Cc1cc2cccc(Cl)c2c(=O)n1C1CC1 [Compound 141]
- EC50: < 100 nM

SMILES: Nc1ncnc2c1c(-c1cc(O)cc(F)c1)nn2Cc1cc2cccc(Cl)c2c(=O)n1C1CC1 [Compound 142]
- EC50: < 100 nM

SMILES: Nc1ncnc2c1c(-c1cc(O)cc(F)c1)nn2Cc1cc2cccc(F)c2c(=O)n1-c1ccccc1F [Compound 144]
- EC50: < 100 nM

SMILES: Cc1ccccc1-n1c(Cn2nc(-c3ccc4nc(N)sc4c3)c3c(N)ncnc32)cc2cccc(C)c2c1=O [Compound 145]
- EC50: < 1000 nM

SMILES: Cc1cccc2cc(Cn3nc(-c4cccc(O)c4)c4c(N)ncnc43)n(-c3ccccc3)c(=O)c12 [Compound 146]
- EC50: < 100 nM

SMILES: Cc1cccc2cc(Cn3nc(-c4cc(O)cc(F)c4)c4c(N)ncnc43)n(-c3ccccc3)c(=O)c12 [Compound 147]
- EC50: < 100 nM

SMILES: CNC(=O)Nc1nc2ccc(-c3nn(Cc4cc5cccc(C)c5c(=O)n4-c4ccccc4C)c4ncnc(N)c34)cc2s1 [Compound 148]
- EC50: < 100 nM

SMILES: Cc1ccccc1-n1c(Cn2nc(-c3ccc4nc(N)ccc4c3)c3c(N)ncnc32)cc2cccc(C)c2c1=O [Compound 149]
- EC50: < 100 nM

SMILES: Cc1ccccc1-n1c(Cn2nc(-c3ccc4nc(N)ncc4c3)c3c(N)ncnc32)cc2cccc(C)c2c1=O [Compound 150]
- EC50: < 100 nM

SMILES: Cc1ccccc1-n1c(Cn2nc(-c3ccc4ncnc(N)c4c3)c3c(N)ncnc32)cc2cccc(C)c2c1=O [Compound 152]
- EC50: < 1000 nM

SMILES: CC(=O)Nc1nc2ccc(-c3nn(Cc4cc5cccc(C)c5c(=O)n4C)c4ncnc(N)c34)cc2s1 [Compound 153]
- EC50: < 100 nM

SMILES: CC(=O)Nc1nc2ccc(-c3nn(Cc4cc5cccc(C)c5c(=O)n4C(C)C)c4ncnc(N)c34)cc2s1 [Compound 154]
- EC50: < 100 nM

SMILES: CC(=O)Nc1nc2ccc(-c3nn(Cc4cc5cccc(C)c5c(=O)n4C4CC4)c4ncnc(N)c34)cc2s1 [Compound 155]
- EC50: < 100 nM

SMILES: CC(=O)Nc1nc2ccc(-c3nn(Cc4cc5cccc(Cl)c5c(=O)n4C4CC4)c4ncnc(N)c34)cc2s1 [Compound 156]
- EC50: < 100 nM

SMILES: CC(=O)Nc1nc2ccc(-c3nn(Cc4cc5cccc(Cl)c5c(=O)n4C(C)C)c4ncnc(N)c34)cc2s1 [Compound 157]
- EC50: < 100 nM

SMILES: CC(=O)Nc1nc2ccc(-c3nn(Cc4cc5cccc(F)c5c(=O)n4C(C)C)c4ncnc(N)c34)cc2s1 [Compound 158]
- EC50: < 100 nM

From patent publication US9822131B2, “Certain chemical entities, compositions and methods” (Intellikine LLC, priority 2008, dated 2017)
